Here are results for five compounds from paper PMC7894401 (CPT: Pharmacometrics & Systems Pharmacology, 2020).

Like-named read-outs stand apart in the source and are kept apart here.

The conditions of data set [1]: Simcyp input, cited from earlier work; for LogP: ref 42 (ertugliflozin), DrugBank 50 (dapagliflozin), DrugBank 49 (MFA).
Another data set deals with UGT. The note with it: ref 18 (ertugliflozin), 39 (dapagliflozin); cited from earlier work.
Data set [2] in a line: Human ADME study with 14C-labelled drug: excretion and metabolite recovery. The data set is classed as in vivo. The note with it: human ADME study (ertugliflozin ref 12, dapagliflozin ref 23).
Data set [3] concerns UGT2B7 (UGT2B4/2B7 contribution assigned to UGT2B7). Kind of data set: UGT2B4/2B7 contribution to metabolism. The data set is classed as in vitro ADME, human. The note with it: human.
Data set [4] has as its system UGT2B4/2B7. In words: UGT2B4/2B7 contribution to metabolism. The class given is in vitro ADME, human.
For another data set, the system named is CYP. In words: Overall oxidative. The note with it: human, human liver microsomes (model input, not an incubation). The class given is in vitro ADME.
The conditions of data set [5]: human ADME study, ref 12 (ertugliflozin), 23 (dapagliflozin), cited from earlier work.
The conditions of data set [6]: cited from earlier work.
Another data set is described as follows: PBPK. On the set-up: species or system human. The settings on record: dapagliflozin with MFA.
The conditions of data set [7]: blood/plasma ratio; ref 45 (ertugliflozin), 46 (dapagliflozin); cited from earlier work.
The test system of the next data set is Caco‐2. The note with it: ref 17 (ertugliflozin), 46 (dapagliflozin); cited from earlier work.
The target in data set [8] is T1, UGT1A9 (Homo sapiens, UniProt O60656).
T1 sequence (O60656 26-530): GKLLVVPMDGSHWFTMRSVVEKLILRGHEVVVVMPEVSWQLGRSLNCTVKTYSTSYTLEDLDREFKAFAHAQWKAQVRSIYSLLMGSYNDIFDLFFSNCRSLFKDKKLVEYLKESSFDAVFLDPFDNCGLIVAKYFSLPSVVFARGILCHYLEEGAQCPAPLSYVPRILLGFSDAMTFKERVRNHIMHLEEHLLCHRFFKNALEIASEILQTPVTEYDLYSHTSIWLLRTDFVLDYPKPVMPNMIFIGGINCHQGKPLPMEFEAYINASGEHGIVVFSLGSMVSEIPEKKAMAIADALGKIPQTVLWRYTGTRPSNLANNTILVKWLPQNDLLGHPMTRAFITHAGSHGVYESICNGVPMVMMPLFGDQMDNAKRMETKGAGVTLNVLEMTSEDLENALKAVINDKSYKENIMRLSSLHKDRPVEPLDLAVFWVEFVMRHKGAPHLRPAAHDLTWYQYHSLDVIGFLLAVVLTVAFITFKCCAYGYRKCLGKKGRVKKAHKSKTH
In words: UGT1A9 contribution to metabolism. The class given is in vitro ADME.

Another data set can be described thus: PBPK model. On the set-up: species or system human.
For data set [9] the following is noted: cited from earlier work. The source holds these as a separate data set.
Another data set addresses T2, UGT2B4 (Homo sapiens, UniProt P06133).
T2 sequence (P06133 24-528): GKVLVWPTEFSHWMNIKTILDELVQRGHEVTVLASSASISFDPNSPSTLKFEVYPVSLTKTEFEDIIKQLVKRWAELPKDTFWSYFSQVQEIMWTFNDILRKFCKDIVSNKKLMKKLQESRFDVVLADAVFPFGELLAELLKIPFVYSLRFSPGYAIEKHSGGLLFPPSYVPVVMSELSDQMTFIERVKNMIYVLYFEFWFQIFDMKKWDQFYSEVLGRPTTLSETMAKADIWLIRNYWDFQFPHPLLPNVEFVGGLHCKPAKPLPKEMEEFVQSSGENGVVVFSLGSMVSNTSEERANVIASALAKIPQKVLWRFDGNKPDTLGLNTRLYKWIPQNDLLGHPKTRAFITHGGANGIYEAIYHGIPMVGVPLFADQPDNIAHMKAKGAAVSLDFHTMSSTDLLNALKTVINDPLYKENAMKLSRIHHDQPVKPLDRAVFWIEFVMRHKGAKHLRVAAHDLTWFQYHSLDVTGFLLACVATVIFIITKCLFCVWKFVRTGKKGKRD
Kind of data set: Mefenamic acid inhibition of UGT2B4. The data set is classed as biochemical. The note with it: HLM, 1–100 µM.

The target in data set [10] is T1, UGT1A9. Kind of data set: In vivo Ki of MFA fitted in the PBPK model to the clinical MFA–dapagliflozin DDI. The settings on record: UGT1A9 and UGT2B7, relative potencies kept.
Data set [11] relates to UGT2B4/2B7. The settings on record: cited from earlier work.
The conditions of data set [12]: probenecid 500-mg twice-daily dose.
The mark [13] stands for this setting: calculated from clinical ADME and reaction phenotyping data.
[14] abbreviates: dapagliflozin multiple oral dose 10 mg once daily.
[15] abbreviates: dapagliflozin multiple oral dose 50 mg once daily.
The mark [16] stands for this setting: dapagliflozin single oral dose 10 mg, geometric mean.
Setting [17] is: dapagliflozin single oral dose 10 mg.

The term LogP denotes a log measure of how a compound divides between an organic and an aqueous phase. The term microsomal CLint denotes a measure of how fast metabolising enzymes remove a compound, apart from limits set by blood flow. Higher therefore signals rapid turnover. As a reminder, the Vss is a proportionality between amount in the body and measured concentration, not a real space. Take `CCOc1ccc(Cc2cc([C@@H]3O[C@H](CO)[C@@H](O)[C@H](O)[C@H]3O)ccc2Cl)cc1` [Dapagliflozin, dapagliflozin]: the LogP in [1] was 2.52. For the same compound, the “Share of systemic UGT clearance occurring in the liver” value with UGT is 90%. For the same compound, the “Fe observed (fraction excreted unchanged in urine)” value in data set [2] was found to be 0.02. Moreover, the results for the microsomal CLint (in [3]; with CYP; at UGT1A9 [8] (human)) were 3 µL/min/mg, 4 µL/min/mg and 30 µL/min/mg, respectively. For the same compound, the “fm,UGT2B7 observed” value in the data set with UGT2B4/2B7 [4] (setting [13]) is listed as 0.09. The “Remaining UGT metabolism assigned to UGT2B7” value in the data set on UGT2B4/2B7 [4] (remainder after UGT1A9 contribution) is reported as 10%. In [5] (% of dose), the “Renal excretion of unchanged drug” value was 2%. For the same compound, the Elimination by glucuronidation in data set [5] is 88%. Moreover, in data set [5], the “Elimination by oxidation (converted to oxidative metabolites)” value was 10%. The Vss in data set [6] (after i.v. administration, ref 15 (ertugliflozin), 38 (dapagliflozin)) is recorded as 1.19 L/kg. For the same compound, the “Observed Cmax” value in data set [6] (setting [14]) is recorded as 119 ng/mL; in [6] (setting [15]), 728 ng/mL; in data set [6] (setting [16]) it was 143 ng/mL. The “Observed AUCinf” value in data set [6] (setting [16]) is listed as 628 ng·h/mL. The CLiv in [6] (intravenous plasma clearance, ref 15 (ertugliflozin), 38 (dapagliflozin)) is reported as 12.4 L/h. Moreover, the “Absolute bioavailability (F)” value in data set [6] (oral, ref 15 (ertugliflozin), 38 (dapagliflozin)) is 78%. Besides, in “PBPK”, the AUCR predicted/observed ratio is recorded as 1.0. Moreover, in the data set “PBPK”, the CmaxR predicted/observed ratio is 1.0. Also, in [7], the B/P ratio is reported as 0.88. The “Caco‐2 permeability coefficient” value in the data set with Caco‐2 is given as 15.9 10^–6 cm/s. For the same compound, on UGT1A9 [8] (setting [13]), the “fm,UGT1A9 observed” value is 0.79. The “Relative contribution of UGT1A9 to UGT metabolism” value at UGT1A9 [8] (in vitro UGT reaction phenotyping of this paper (HLM with UGT1A9 inhibitors)) was determined as 90%. The “AUC predicted/ observed ratio” value in “PBPK model” (setting [14]) is 1.06; in “PBPK model” (setting [15]), 1.06; in the data set “PBPK model” (setting [17]) it was 0.92. Besides, the figures for the “Cmax predicted/ observed ratio” value in the data set “PBPK model” (setting [14]), in the data set “PBPK model” (setting [15]) and in the data set “PBPK model” (setting [17]) were 1.03, 0.84 and 0.87, respectively. Further, the “Increase in dapagliflozin exposure” value in data set [9] (co-administration with mefenamic acid) is listed as 51%.

As usually defined, the pKa is the pH at which an ionisable group is half protonated. As for `Cc1cccc(Nc2ccccc2C(=O)O)c1C` [MFA, mefenamic acid], the lipophilicity (LogP) in data set [1] was 5.4. For the same compound, in data set [1] (ref DrugBank 49), the pKa was 3.89. The “Inhibition of UGT2B4 in vitro” value on UGT2B4 is reported as “did not inhibit”. The “Fold adjustment of in vitro to in vivo UGT Ki values (increased potency)” value at UGT1A9 [10] is on record as ~ 2.9 fold. In addition, in data set [6] (MFA single oral dose 500 mg), the “Observed AUCinf” value was 34200 ng·h/mL and the “Observed Cmax” value is on record as 6900 ng/mL. For the same compound, in the data set “PBPK model” (MFA single oral dose 500 mg), the “AUC predicted/ observed ratio” value was 0.89 and the “Cmax predicted/ observed ratio” value is listed as 0.92.

For the compound `Cc1ccc([C@@H]2O[C@H](CO)[C@@H](O)[C@H](O)[C@H]2O)cc1Cc1ccc(-c2ccc(F)cc2)s1` [canagliflozin], in [9] (co-administration with probenecid), the “Increase in canagliflozin exposure” value is on record as 21%.

As to `Nc1nc(CC(=O)Nc2ccc(CCNC[C@H](O)c3ccccc3)cc2)cs1` [mirabegron], the “UGT2B7-mediated metabolism incorporated in PBPK model” value in the data set with UGT2B4/2B7 [11] is reported as ~ 30%.

For the compound `CCCN(CCC)S(=O)(=O)c1ccc(C(=O)O)cc1` [probenecid], the “estimated unbound maximum steady-state concentration (Cmax,ss,u)” value in data set [12] is listed as 29 µM.
